Assays:
Type in all cases: cell-based
[1] = tested on: SCC-9 tumor cells; assay: Mitochondrial membrane electrical potential (ΔΨm) by flow cytometry; conditions: 24 h, IsCT-P and AC-AFPK-IsCT1 at IC50, others 100 µM, MitoRed, mean ± SD of three independent experiments
Protocol: (§1) Figure 4 Analysis of mitochondrial electrical potential (ΔΨm) using flow cytometry following a 24 h treatment with synthetic analogs of IsCT1 peptides. The indicated cells were treated at the IC50 values obtained for the IsCT-P and AC-AFPK-IsCT1 peptides and at a concentration of 100 µM for the other peptides. (a) Representative histograms of cell distribution according to ΔΨm; (b) bar graph showing ΔΨm expressed as the mean ± SD of three independent experiments of SCC-9 tumor cells; (c) bar graph showing ΔΨm expressed as the mean ± SD of three independent experiments of SCC-25 tumor cells; (d) bar graph showing ΔΨm expressed as the mean ± SD of three independent experiments of normal FN1 cells; (e) bar graph showing ΔΨm expressed as the mean ± SD of three independent experiments of normal J774 cells. Statistical differences were obtained using ANOVA and Tukey–Kramer multiple comparison tests. * p < 0.05, ** p < 0.01, and *** p < 0.001 denote significance. ns = not significant.
(§2) Tumor (SSC-9 and SSC-25) and normal cells (FN1 and J-774) were subjected to treatment for a period of 24 h at the peptides’ IC50 concentrations. After treatment, the cells were trypsinized, centrifuged at 1200 rpm for 5 min, the supernatant was discarded, and the cells were resuspended in complete medium containing MitoRed™ (Sigma-Aldrich, USA) (200 nM/L). Subsequently, the samples were incubated in an incubator at 37 °C with 5% CO2 for 30 min. The tubes were then centrifuged, the supernatant was discarded, and the pellet was resuspended in 200 μL of FACS buffer. Readings were performed using a FACScanto flow cytometer (BD) with 10,000 events, and histograms were acquired and analyzed using FCS Express software 2.0.

[2] = tested on: SCC-25 tumor cells; assay: as above; conditions: 24 h, IsCT-P and AC-AFPK-IsCT1 at IC50, others 100 µM, MitoRed, mean ± SD of three independent experiments
Protocol: as §1, §2

[3] = tested on: human erythrocytes; assay: Hemolytic activity assay; conditions: 0.13–128 μmol L−1 in PBS, n = 3; 1% SDS positive control, PBS negative control
Protocol: Figure 1 (a) Helical wheel projections of the IsCT1, AFPK-IsCT1, KKK-IsCT1, and IsCT-P peptides were generated using the Heliquest server (https://heliquest.ipmc.cnrs.fr/, accessed on 15 July 2024). In these projections, yellow, gray, and green circles represent hydrophobic amino acids, while blue and pink circles denote hydrophilic amino acids. (b) Resistance to degradation assays for all peptides were performed over 6 h in a solution containing 25% fetal bovine serum (FBS). These experiments were conducted in triplicate and aliquots were collected for analysis at 0, 0.5, 1, 2, 4, and 6 h of incubation. The aliquots were subsequently analyzed using high-performance liquid chromatography (HPLC) after each incubation period. The degradation kinetics of the peptides were determined by comparing the integrated peak area associated with the peptide at the start of the experiment (t = 0 h) with the integrated peak area at subsequent time points (t = 0.5, 1, 2, 4, 6 h). (c) The hemolytic activity of synthetic peptides analogous to IsCT1 was assessed on human erythrocytes within a concentration range of 0.13–128 μmol L^−1 in phosphate-buffered saline (PBS) (n = 3). […]
Cell survival was assessed using an MTT assay. […] Absorbance was then measured at a wavelength of 540 nm using a microplate reader. […]

[4] = tested on: SCC-9 tumor cells; assay: CFSE-DA proliferation assay (flow cytometry); conditions: 24 h, IsCT-P and AC-AFPK-IsCT1 at IC50, other peptides at 100 µM, mean ± SD of three independent experiments
Protocol: (§3) Figure 2 Assessment of the cellular proliferative index was conducted using flow cytometry following a 24 h treatment with synthetic analogs of the IsCT1 peptide. The treatments were performed using the IC50 values obtained for the IsCT-P and AC-AFPK-IsCT1 peptides and at a concentration of 100 µM for the other peptides. (a) Representative histograms of the proliferative index were analyzed using WinMDI 5.0 software. Each color in the histogram represents a new cell population. (b) Bar graphs represent the mean ± SD of the proliferative index for SCC-9 tumor cells derived from three independent experiments. (c) Bar graphs display the mean ± SD of the proliferative index for SCC-25 tumor cells based on three independent experiments. (d) Bar graphs represent the mean ± SD of the proliferative index for normal FN1 cells from three independent experiments. (e) Bar graphs illustrate the mean ± SD of the proliferative index for normal J774 cells from three independent experiments. Statistical differences were determined using ANOVA and Tukey–Kramer multiple comparison tests. Significance levels are indicated as * p < 0.05, ** p < 0.01, and *** p < 0.001, with ‘ns’ denoting not significant.
(§4) Tumor (SSC-9 and SSC-25) and normal cells (FN1 and J-774) were plated in 24-well plates at a density of 10^5 cells/mL for 24 h. The treated and control groups were incubated with the carboxyfluorescein marker (CFSE-DA Thermo Fisher (Waltham, MA, USA), KITC34571). CFSE-DA was diluted in PBS + 0.1% human albumin and added to the cell-containing medium. After 24 h of treatment, the cells were trypsinized, transferred to a conical tube, and centrifuged at 1500 rpm for 5 min. The supernatant was discarded and the pellet was resuspended in 1 mL of 4% paraformaldehyde in PBS for 30 min. The cells were then centrifuged, the supernatant was discarded, and the pellet was resuspended in 200 μL of FACS buffer. Readings were performed on a FACScanto flow cytometer (BD, Franklin Lakes, NJ, USA) with the number of events set to 10,000 events, and histograms were acquired and analyzed using ModFit LT 5.0 software.

[5] = tested on: SCC-25 tumor cells; assay: CFSE-DA proliferation assay (flow cytometry); conditions: 24 h, IsCT-P and AC-AFPK-IsCT1 at IC50, other peptides at 100 µM, mean ± SD of three independent experiments
Protocol: as §3, §4

Substance	decrease in ΔΨm [1] [%]	decrease in ΔΨm [2] [%]	hemolytic activity [3]	reduction in the proliferative index [4] [%]	decrease in the proliferative index [5] [%]
Ac-ALGKFWPKIKSLF-NH2 [AC-AFPK-IsCT1]	16.3 ± 2.7	31.5 ± 5.4	did not show hemolytic activity at high concentrations	61.6 ± 1.7	40.9 ± 2.5
H-ILKKIWKPIKKLF-NH2 [IsCT-P]	21.2 ± 5.1	44.4 ± 4.8	caused the hemolysis	61.8 ± 8.7	61.1 ± 2.8
